biological target: T1, IL-4 (Homo sapiens, UniProt P05112); assay: HEK-Blue IL-4/IL-13 cell-based reporter (SEAP) IL-4 inhibition assay; details: 1 uM; percent activity in HEK-Blue IL-4/IL-13; in %
T1 construct: purchased Acros Biosystems IL4-H4218; host or cells: HEK-293
T1 sequence (P05112 25-153): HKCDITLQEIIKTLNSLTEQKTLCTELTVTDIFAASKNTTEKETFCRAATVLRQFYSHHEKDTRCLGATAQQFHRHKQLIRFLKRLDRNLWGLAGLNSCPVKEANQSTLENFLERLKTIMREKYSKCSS
Description: HEK-Blue IL-4/IL-13 cells were purchased from Invivogen and maintained in DMEM complete with 10% fetal bovine serum, 10 μg/ml of blasticidin and 100 μg/ml of Zeocin, 100 μg/mL Normocin, and 100 U/mL-100 μg/mL Pen-Strep. Cells used for assays were between passages 12 and 18. […] HEK-Blue IL-4/IL-13 cells were trypsinized, spun down, and resuspended in DMEM with 10% heat-inactivated FBS, and 100 U/mL-100 μg/mL Pen-Strep at a concentration of 3.125E5/mL. 160 μL of the cell suspension was added to each well of a 96 well plate, avoiding the edges of the plate and equilibrated in an incubator for 1 hour. After 2 hours, 40 μL of the small molecule/IL-4 solution was added to each well. Each measurement performed in quadruplicate. Cells were incubated for 20 hours at 37° C./5% CO2. Quanti-Blue was prepared according to manufacture and 160 μL added to each well of a 96 well plate, avoiding edges. 40 μL of cell supernatant was added to each well and then incubated for 3 hours at 37° C. The optical density was then read at 650 nm with a Molecular Devices SpectraMax M5 Microplate Reader. Data was plotted and analyzed in GraphPad Prism 8.
HEK-Blue IL-4/IL-13 cells were purchased from Invivogen and maintained in DMEM complete with 10% fetal bovine serum, 10 μg/ml of blasticidin and 100 μg/ml of Zeocin, 100 μg/mL Normocin, and 100 U/mL-100 μg/mL Pen-Strep. Cells used for assays were between passages 12 and 18. Prior to screening small molecules, the SEAP production induced by IL-4 alone was tested in the cells (FIG. 13) and determined to be 0.3 ng/mL. The EC25 for the IL-4 induced SEAP production (0.1 ng/mL final well concentration) was chosen for running small molecule inhibition assays.
For screening small molecules, 25 µL of each molecule (FIG. 9) in DMEM with 4% DMSO was added to 25 μL of 1 ng/ml IL-4 in DMEM and incubated for 2 hours at 37° C. HEK-Blue IL-4/IL-13 cells were trypsinized, spun down, and resuspended in DMEM with 10% heat-inactivated FBS, and 100 U/mL-100 μg/mL Pen-Strep at a concentration of 3.125E5/mL. 160 μL of the cell suspension was added to each well of a 96 well plate, avoiding the edges of the plate and equilibrated in an incubator for 1 hour. After 2 hours, 40 μL of the small molecule/IL-4 solution was added to each well. Each measurement was performed in […]. Cells were incubated for 20 hours at 37° C./5% CO2. Quanti-Blue was prepared according to manufacture and 160 μL added to each well of a 96 well plate, avoiding edges. 40 μL of cell supernatant was added to each well and then incubated for 3 hours at 37° C. The optical density was then read at 650 nm with a Molecular Devices SpectraMax M5 Microplate Reader. Data was plotted and analyzed in GraphPad Prism 8.
HEK-Blue IL-4/IL-13 cells used to screen analogs of compound 52 from ACS Chemical Biology paper (also referred to herein as D9). Assay was run as described in Examples 2 and 3. All compounds were screened at 10 μM, 1 μM, and 250 nM in quadruplicate. The results are depicted in FIGS. 17-21.

In order of falling “Activity at 1 uM” value:
1. COc1nc(-c2ccccc2)cc(-c2ccccc2)c1C#N [Compound 61]  96.92
2. N#Cc1c(-c2ccccc2)cc(-c2ccccc2)nc1N1CCCCC1 [Compound 63]  95.46
3. COc1ccc(-c2cc(-c3ccccc3)c(C#N)c(SC)n2)cc1 [Compound 65]  95.33
4. Cn1ccc(-c2cc(-c3cccc(O)c3)c(C#N)c(=O)[nH]2)c1 [Compound 57]  94.4121
5. N#Cc1c(-c2cccc(O)c2)cc(-c2cc(F)c(F)c(F)c2)[nH]c1=O [Compound 59]  88.75
6. COc1ccc(-c2cc(-c3ccc(O)cc3)c(C#N)c(SC)n2)c(OC)c1 [Compound 66]  87.86
7. Cc1cc(-c2cc(-c3cccc(O)c3)c(C#N)c(=O)[nH]2)c(C)s1 [Compound 58]  85.76
8. N#Cc1c(-c2ccc(O)c(O)c2)cc(-c2ccc(N3CCCCC3)cc2)[nH]c1=O [Compound 56]  81.52
9. COc1ccc(-c2cc(-c3ccc(O)c(OC)c3)c(C#N)c(=O)[nH]2)cc1 [Compound 45]  80.34
10. Cc1ccc(-c2cc(-c3ccc(F)cc3)nc(N)c2C#N)o1 [Compound 9]  77.98
11. COc1ccc(-c2cc(-c3ccccc3)c(C#N)c(=O)[nH]2)cc1 [Compound 34]  73.09
12. N#Cc1c(-c2ccc(O)c(O)c2)cc(-c2ccc(F)cc2)nc1N [Compound 2]  64.46
13. N#Cc1c(-c2ccccc2O)cc(-c2ccc(F)cc2)nc1N [Compound 15]  51.3773
14. COc1ccc(-c2cc(-c3ccc(OC)c(O)c3)c(C#N)c(=O)[nH]2)cc1 [Compound 46]  17.94
15. COc1ccc(-c2cc(-c3ccc(-c4ccccc4)cc3)[nH]c(=O)c2C#N)cc1O [Compound 53]  17.656

same assay, conditions: 10 uM; percent activity in HEK-Blue IL-4/IL-13; in %

In order of rising “Activity at 10 uM” value:
1. COc1ccc(-c2cc(-c3ccc(O)c(OC)c3)c(C#N)c(=O)[nH]2)cc1 [Compound 45]  −2.843
2. N#Cc1c(-c2ccccc2O)cc(-c2ccc(F)cc2)nc1N [Compound 15]  1.218
3. N#Cc1c(-c2ccc(O)c(O)c2)cc(-c2ccc(F)cc2)nc1N [Compound 2]  4.2
4. N#Cc1c(-c2ccc(O)c(O)c2)cc(-c2ccc(N3CCCCC3)cc2)[nH]c1=O [Compound 56]  11.84
5. COc1ccc(-c2cc(-c3ccc(OC)c(O)c3)c(C#N)c(=O)[nH]2)cc1 [Compound 46]  13.16
6. COc1ccc(-c2cc(-c3ccccc3)c(C#N)c(SC)n2)cc1 [Compound 65]  20.54
7. COc1ccc(-c2cc(-c3ccc(O)cc3)c(C#N)c(SC)n2)c(OC)c1 [Compound 66]  21.21
8. COc1ccc(-c2cc(-c3ccc(-c4ccccc4)cc3)[nH]c(=O)c2C#N)cc1O [Compound 53]  30.26
9. N#Cc1c(-c2cccc(O)c2)cc(-c2cc(F)c(F)c(F)c2)[nH]c1=O [Compound 59]  32.37
10. COc1nc(-c2ccccc2)cc(-c2ccccc2)c1C#N [Compound 61]  39.64
11. Cc1cc(-c2cc(-c3cccc(O)c3)c(C#N)c(=O)[nH]2)c(C)s1 [Compound 58]  39.79
12. N#Cc1c(-c2ccccc2)cc(-c2ccccc2)nc1N1CCCCC1 [Compound 63]  40.44
13. Cc1ccc(-c2cc(-c3ccc(F)cc3)nc(N)c2C#N)o1 [Compound 9]  66.06
14. COc1ccc(-c2cc(-c3ccccc3)c(C#N)c(=O)[nH]2)cc1 [Compound 34]  72.43
15. Cn1ccc(-c2cc(-c3cccc(O)c3)c(C#N)c(=O)[nH]2)c1 [Compound 57]  75.91
